l = locked nucleic acid (LNA); d = 2'-deoxy (DNA)
Tests used:
[1] = test system: miR-17-92 primary transcript (pri-miRs) and mature miR-17-92 cluster members; assay: q-RT-PCR of miR-17-92 member family and two pri-miRs after transfection of MM cells; assay type: cell-based, Human; settings: 48 hours after transfection with 25 nM
Method: (§1) 3×10^5 cells were transfected using Neon Transfection System (Invitrogen, Calif.,U.S.), (2 pulses at 1150, 30ms). The transfection efficiency evaluated by flow-cytometric analysis relative to a FAM dye—labeled anti-miR—negative control reached 85% to 90%.
Reverse transcription (RT) of both primary and mature miRNAs was performed using TaqMan® MicroRNA Assays, following a procedure for multiplexing the RT step (Life Technologies, Publication Part Number 4465407). Briefly, 500 ng of total RNA, prepared with the TRIzol® Reagent (Invitrogen), underwent reverse transcription by the Taq-Man® MicroRNA RT Kit. In this reaction, the RT primer pool was composed by the individual RT primers for each microRNA belonging to the miR-17-92 cluster and two RT primers to allow the reverse transcription of the miR-17-92 primary miRNA. Real-time PCR was performed using TaqMan® MicroRNA Assays together with the TaqMan® Universal PCR Master Mix on an ViiA7 System (Life Technologies). Both primary and mature microRNAs expressions were relatively quantified using the 2-ΔΔCt method (Applied Biosystems User Bulletin No. 2), and expressed as the relative quantity of target miRNA normalized to the RNU44 (assay ID 001094) housekeeping gene. Comparative real-time polymerase chain reaction (RT-PCR) was performed in triplicate, including no-template controls. Relative expression was calculated using the comparative cross threshold (Ct) method.
By the use of a custom q-RT-PCR plate specifically designed by us to detect all six mature miR-17-92 members and the primary transcript by two different assays (pri-mir-17/18a/19a and pri-mir-19b1/20a/92a1), we quantified in a panel of 11 MM cell lines the levels of the different miRNAs and pri-miRs.

[2] = test system: NCI-H929 cells; assay: Flow cytometry of 7-AAD stained cells after transfection; assay type: cell-based, Human; settings: transfection 25 nM, as compared to RNase-free water
Method: as §1
(§2) 7-aminoactinomycin was used to evaluate cell viability. The staining was performed according to manufacturer's instructions.

[3] = test system: RPMI-8226, KMS-12-BM and NCI-H929 cells; assay: Cell viability by flow cytometry of 7-AAD stained cells, gapmer versus single miRNA inhibitors; assay type: cell-based, Human; settings: transfection with 25 nM
Method: Commercial miRNA inhibitors for miR-17a, miR-18a, miR-19a, miR-19b, miR-20a and miR-92a were purchased from Ambion (Applied Biosystems, Calif., U.S.).
as §1, §2
To this aim, we transfected three different MM cell lines with 25 nM of either gapmer_06 or miRNA inhibitors from Ambion or RNase free water as control.

[4] = test system: U266 cells; assay: U266 orthotopic model of human MM (IVIS); assay type: in vivo, mice; settings: I.P. 2 mg/kg at day 1-4-8-15-22; compared to controls
Description: Male CB-17 severe combined immunodeficient (SCID) mice (6- to 8-weeks old; Harlan Laboratories, Inc., Indianapolis) were housed and monitored in our Animal Research Facility. All experimental procedures and protocols had been approved by the Institutional Ethical Committee (Magna Graecia University) and conducted according to protocols approved by the National Directorate of Veterinary Services (Italy). In accordance with institutional guidelines, mice were sacrificed when tumors reached 2 cm in diameter or in the event of paralysis or major compromise, to prevent unnecessary suffering. […] Mice were also inoculated with 5×10^6 luciferase gene-marked U266, AMO-1, AMO-1/abzb, treatments were performed intraperitoneally (i.p.), and tumor volume were measured by IVIS Lumina II.
The in vivo activity of gapmer_06 was also evaluate in a orthotopic model of human MM using U266 cells, to explore the efficacy in relation to the microenvironment. […] Tumor growth was monitored using IVIS LUMINA II Imaging System. […] Engraftment was determined by sacrificing mice after 10 weeks and analyzing bone marrow for luciferase gene-marked U266 cells. […] Mice were treated I.P. with gapmer_06 at concentration of 2 mg/kg at day 1-4-8-15-22, and serum shulL-6R levels were serially determined as a marker of tumor growth.

[5] = test system: Capan1, MCF7, MDA231, LXF-289, A-549, NCI-H82, 5637, BCMW.1 and MPM-209 cells; assay: CCK-8 proliferation of non-myeloma cancer cell lines after gymnotic exposure; assay type: cell-based, Human; settings: 6 days gymnotic exposure, 0-2,5-5-10 μM
Method: Cells were seeded at low plating density in order to reach confluence on the final day of the experiments (day 6). Cell number at plating ranged from 0.5 to 2.5×10^3 in 96-well plates, from 2.5 to 10×10^3 in 12-well plates and from 1 to 3×10^4 in 6-well plates.
Cells were seeded in 100 μL (suspension cell lines) or 50 μL (adherent cell lines) of culture medium at a density ranging from 0,5 to 2,5×10^3 cells per well. Survival was evaluated by both Cell Counting Kit-8 colorimetric assay (CCK-8, Dojindo Molecular Technologies, Japan) and CellTiter-Glo Luminescent Cell Viability Assay (Promega Madison, Wis., USA). Assays were performed according to the manufacturer's instructions. The optical density (OD) was evaluated at wave length of 450 nm. Both OD and luminescence were recorded with the GloMax-multi detection system (Promega, Madison, Wis., USA).
Specifically, we gymnotically exposed for 6 days to 0-2,5-5-10 μM of gapmer_06, the following cell lines: Capan1 pancreatic cancer cells, MCF7 and MDA231 breast cancer cells, LXF-289, A-549 and NCI-H82 lung cancer cells, 5637 bladder cancer cells, BCMW.1 Waldenstrom Macroglobulinemia cells and MPM-209 mesothelioma cells.

gapmer_06: LNA/DNA gapmer, SEQ ID 4 (14 mer): +T*+A*+C*T*T*G*C*T*T*G*G*+C*+T*+T; + LNA, * phosphorothioate (antisense TACTTGCTTGGCTT; sugars from the 5' end l3 d8 l3, all phosphorothioate, methylation of C not given here)
downregulation of primary and mature miRNA sequences (q-RT-PCR) ([1]; NCI-H929 and RPMI-8226 cells, relative to RNase-free water): more effective gapmer to downregulate both primary and mature miRNA sequences | downregulation of pri-miRs and miR-17-92 cluster members (q-RT-PCR) ([1]; NCI-H929 cells, vs RNase-free water): induce downregulation of the two primary transcript and mature single miRNA members | reduction of live cells (7-AAD) [2]: 20% | biological effect on cell viability (flow cytometry, 7-AAD) compared with single miRNA inhibitors [3]: strongest biological effects | tumor growth (IVIS) [4]: significant tumor-growth inhibition | proliferation (CCK-8 cell growth analysis) [5]: impair proliferation of all cell lines
